# How the values were obtained:
# HsOrco = target: T1, HsOrco (Harpegnathos saltator, UniProt E2BJ30); test: whole-cell patch clamp, HEK cells, […] antagonist against […] VUAA1; type: cell-based
# T1 construct: gene Orco
# T1 sequence (E2BJ30 1-479): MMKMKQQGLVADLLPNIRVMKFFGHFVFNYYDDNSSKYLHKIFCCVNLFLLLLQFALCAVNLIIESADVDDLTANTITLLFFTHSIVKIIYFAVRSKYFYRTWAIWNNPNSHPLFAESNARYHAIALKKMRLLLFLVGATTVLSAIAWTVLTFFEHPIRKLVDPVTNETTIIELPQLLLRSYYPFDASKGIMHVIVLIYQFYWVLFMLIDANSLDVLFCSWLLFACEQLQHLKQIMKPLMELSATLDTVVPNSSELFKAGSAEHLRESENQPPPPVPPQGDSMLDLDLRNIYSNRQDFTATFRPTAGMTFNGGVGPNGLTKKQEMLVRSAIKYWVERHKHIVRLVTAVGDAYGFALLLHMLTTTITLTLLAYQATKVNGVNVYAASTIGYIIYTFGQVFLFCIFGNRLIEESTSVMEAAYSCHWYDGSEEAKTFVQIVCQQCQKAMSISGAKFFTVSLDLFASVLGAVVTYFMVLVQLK
# AgOrco [1] = target: T2, AgOrco (Anopheles gambiae, UniProt Q7QCC7); test: calcium mobilization in AgOrco-only HEK cells against VUAA1; whole-cell patch clamp; type: cell-based
# T2 construct: gene Orco
# T2 sequence (Q7QCC7 1-478): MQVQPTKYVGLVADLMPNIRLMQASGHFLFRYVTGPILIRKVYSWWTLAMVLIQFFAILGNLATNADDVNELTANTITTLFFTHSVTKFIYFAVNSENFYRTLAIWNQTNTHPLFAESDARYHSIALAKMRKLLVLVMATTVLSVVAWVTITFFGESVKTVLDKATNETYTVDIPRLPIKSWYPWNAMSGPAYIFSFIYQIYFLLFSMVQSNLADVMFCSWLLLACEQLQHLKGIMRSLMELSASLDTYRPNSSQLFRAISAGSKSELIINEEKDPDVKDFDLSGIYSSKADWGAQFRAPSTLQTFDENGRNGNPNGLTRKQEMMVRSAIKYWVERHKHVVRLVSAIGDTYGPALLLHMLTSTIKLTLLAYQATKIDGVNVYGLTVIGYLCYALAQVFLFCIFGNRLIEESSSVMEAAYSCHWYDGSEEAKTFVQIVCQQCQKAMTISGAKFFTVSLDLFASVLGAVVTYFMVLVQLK
# AgOrco [2] = target: T2, AgOrco; test: calcium mobilization in AgOrco-only HEK cells against VUAA1; type: cell-based
# TRPV1 = TRPV1 (Rattus norvegicus, UniProt O35433); test: whole-cell patch clamp in HEK cells, […] capsaicin; type: cell-based
# Sequence of TRPV1 (O35433 whole entry): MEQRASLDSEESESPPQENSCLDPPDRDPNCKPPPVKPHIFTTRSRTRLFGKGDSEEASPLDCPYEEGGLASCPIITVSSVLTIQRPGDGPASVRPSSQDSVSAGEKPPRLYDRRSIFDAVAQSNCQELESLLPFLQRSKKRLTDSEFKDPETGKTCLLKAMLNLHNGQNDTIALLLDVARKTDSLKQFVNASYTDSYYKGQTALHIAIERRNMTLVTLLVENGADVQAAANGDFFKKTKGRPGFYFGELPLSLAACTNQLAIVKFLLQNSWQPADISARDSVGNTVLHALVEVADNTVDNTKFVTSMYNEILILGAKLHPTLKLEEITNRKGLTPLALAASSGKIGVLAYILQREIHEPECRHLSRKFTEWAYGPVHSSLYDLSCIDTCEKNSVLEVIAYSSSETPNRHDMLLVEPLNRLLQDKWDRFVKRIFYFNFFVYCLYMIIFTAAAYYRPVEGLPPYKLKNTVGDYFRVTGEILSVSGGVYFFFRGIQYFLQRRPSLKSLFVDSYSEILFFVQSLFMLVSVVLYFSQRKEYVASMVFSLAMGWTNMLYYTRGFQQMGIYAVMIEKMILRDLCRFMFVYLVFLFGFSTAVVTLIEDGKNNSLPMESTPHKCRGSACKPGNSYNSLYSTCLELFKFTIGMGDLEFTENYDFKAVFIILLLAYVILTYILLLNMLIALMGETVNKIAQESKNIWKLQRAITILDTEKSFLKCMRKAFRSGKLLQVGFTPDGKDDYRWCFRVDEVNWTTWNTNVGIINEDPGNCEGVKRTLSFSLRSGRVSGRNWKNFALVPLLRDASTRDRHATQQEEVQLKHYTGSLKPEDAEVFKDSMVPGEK
# AgOr65 = system: T3, AgOr65; test: calcium mobilization concentration response in AgOrco+AgOr65 HEK cells; patch clamp; type: cell-based, Anopheles gambiae
# T3 construct: gene Or65; with AgOrco
smiles,measurement,setting,value
"CCn1c(SCC(=O)N2c3ccccc3Sc3ccccc32)nnc1-c1ccco1 [VU0183254, 10-({[4-ethyl-5-(2-furyl)-4H-1,2,4-triazol-3-yl]thio}acetyl)-10H-phenothiazine]",%,HsOrco,63.9±2.2%
same,IC50,AgOrco [1],12.6 µM
"CCn1c(SCC(=O)Nc2ccc(Br)cc2C)nnc1-c1cccnc1 [VU0450667, N-(4-bromo-2-methylphenyl)-2-((4-ethyl-5-(pyridin-3-yl)-4H-1,2,4-triazol-3-yl)thio)acetamide]",IC50,AgOrco [2],1580 µM
COc1cc(CNC(=O)CCCC/C=C/C(C)C)ccc1O [capsaicin],"whole-cell patch clamp in HEK cells, 10 μM capsaicin",TRPV1,VU0183254 did not affect the macroscopic currents induced by the natural TRPV1 ligand capsaicin
C=CCc1ccc(O)c(OC)c1 [eugenol],EC50,AgOr65,−6.69+/−.03 log M

# — article PMC3260273, “Allosteric Antagonism of Insect Odorant Receptor Ion Channels” (PLoS ONE, 2012)
